Molecular target: T1, recombinant human PDE5 (Homo sapiens, UniProt O76074)
T1 construct: host or cells: Saccharomyces cerevisiae protease-deficient strain BJ2-54 (ATCC 74465)
Assay: PDE5 inhibition (cGMP-PDE one-step assay)
Type: biochemical
Conditions: In vitro
Procedure: The compounds of structural formula (I) were tested for an ability to inhibit PDE5. The ability of a compound to inhibit PDE5 activity is related to the IC50 value for the compound, i.e., the concentration of inhibitor required for 50% inhibition of enzyme activity. The IC50 value for compounds of structural formula (I) were determined using recombinant human PDE5.
Phosphodiesterase activity of the preparations was determined as follows. PDE assays utilizing a charcoal separation technique were performed essentially as described in Loughney et al. (1996). In this assay, PDE activity converts [32P]cAMP or [32P]cGMP to the corresponding [32P]5′-AMP or [32P]5′-GMP in proportion to the amount of PDE activity present. The [32P]5′-AMP or [32P]5′-GMP then was quantitatively converted to free [32P]phosphate and unlabeled adenosine or guanosine by the action of snake venom 5′-nucleotidase. […] The assay was performed at 30° C. in a 100 μL reaction mixture containing (final concentrations) 40 mM iris HCl (pH 8.0), 1 μM ZnSO4, 5 mM MgCl2, and 0.1 mg/mL bovine serum albumin (BSA). PDE enzyme was present in quantities that yield <30% total hydrolysis of substrate (linear assay conditions). The assay was initiated by addition of substrate ([…] [^32P]cAMP or cGMP), and the mixture was incubated for 12 minutes. Seventy-five (75) […] of Crotalus atrox venom then was added, and the incubation was continued for 3 minutes (15 minutes total). The reaction was stopped by addition of 200 μL of activated charcoal (25 mg/mL suspension in 0.1 M NaH2PO4, pH 4). After centrifugation. (750×g for 3 minutes) to sediment the charcoal, a sample of the supernatant was taken for radioactivity determination in a scintillation counter and the PDE activity was calculated.
cGMP-PDE activity of compounds of the present invention was measured using a one-step assay adapted from Wells et al., Biochim. Biophys. Acta, 384, 430 (1975). The reaction medium contained 50 mM Tris-HCl, pH 7.5, 5 mM magnesium acetate, 250 μg/ml 5′-Nucleotidase, 1 mM EGTA, and 0.15 μM 8-[H^3]-cGMP. Unless otherwise indicated, the enzyme used was a human recombinant PDE5 (ICOS Corp., Bothell, Wash.).
Compounds of the invention were dissolved in DMSO finally present at 2% in the assay.

SMILES	IC50 [nM]
CN1CC(=O)N2[C@H](c3ccc4c(c3)OCO4)c3[nH]c4ccccc4c3[C@@H](c3ccccc3)[C@@H]2C1=O (racemic) [Example 3, (+−, 6,12a cis-12,12a-trans)-6-Benzo-(1,3)-dioxol-5-yl-methyl-12-phenyl-2,3,6,7,12,12a-hexahydro-pyrazino[1′,2′:1,6]pyrido[3,4-b]indole-1,4-dione]	47
CN1CC(=O)N2[C@H](c3ccc4c(c3)OCO4)c3[nH]c4ccccc4c3C[C@]2(C)C1=O [Example 1, (6R,12aR)-6-Benzo[1,3]dioxol-5-yl-2,12a-dimethyl-2,3,6,7,12,12a-hexahydro-pyrazino-[1,2′:1,6]pyrido[3,4-b]indole-1,4-dione]	46
CN1CC(=O)N2[C@H](Cc3c([nH]c4ccccc34)[C@@]2(C)c2ccc3c(c2)OCO3)C1=O [Example 2a, (+−, Cis)-6-Benzo[1,3]dioxol-5-yl-2,6-dimethyl-2,3,6,7,12,12a-hexahydropyrazino-[1′,2′:1,6]pyrido[3,4-b]indole-1,4-dione]	685
CN1CC(=O)N2[C@H](Cc3c([nH]c4ccccc34)[C@]2(C)c2ccc3c(c2)OCO3)C1=O [Example 2b, (+−, trans)-6-Benzo[1,3]dioxol-5-yl-2,6-dimethyl-2,3,6,7,12,12a-hexahydropyrazino-[1′,2′:1,6]pyrido[3,4-b]indole-1,4-dione]	260
CN1CC(=O)N2[C@H](Cc3c([nH]c4ccccc34)[C@@]2(O)c2ccc3c(c2)OCO3)C1=O [Example 5, (6S,12aR)-6-Benzo[1,3]dioxol-5-yl-6-hydroxy-2-methyl-2,3,6,7,12,12a-hexahydropyrzino[1′,2′:1,6]pyrido[3,4-b]indole-1,4-dione]	142

Next, values leading:

IC50 [nM]	SMILES
4	C[C@@H]1c2c([nH]c3ccccc23)[C@@H](c2ccc3c(c2)OCO3)N2C(=O)CN(C)C(=O)[C@@H]12 (racemic) [Example 4a, (+−, cis, trans methyl)-6-Benzo[1,3]dioxol-5-yl-2,12-dimethyl-2,3,6,7,12,12a-hexahydropyrazino[1′,2′:1,6]pyrido[3,4-b]indole-1,3-dione]
63	C[C@@H]1c2c([nH]c3ccccc23)[C@H](c2ccc3c(c2)OCO3)N2C(=O)CN(C)C(=O)[C@@H]12 (racemic) [Example 4b, (+−, trans, trans methyl)-6-Benzo[1,3]dioxol-5-yl-2,12-dimethyl-2,3,6,7,12,12a-hexahydropyrazino[1′,2′:1,6]pyrido[3,4-b]indole-1,3-dione]
